Assays:
Assay type in all cases: cell-based
[1] = tested on: LPS-induced RAW264.7 cells; experiment: M1/M2 macrophage polarization by flow cytometry; conditions: pretreated with (R)-salbutamol following incubation with ICI-118551, LPS
Description: (§1) Macrophages were treated without or with (R)/(S)-salbutamol for 1 h prior to LPS stimulation and subsequently incubated for 12 h. […] The fluorescence of the oxidized product (2′,7′-dichlorofluorescein, DCF) was assessed using an LSM710 Laser Scanning Confocal Microscope (Carl Zeiss, Jena, Germany). The concentration of NO in the culture supernatant was measured by assaying the concentrations of nitrite (a stable NO breakdown product) using the Griess assay (Beyotime, Shanghai, China), according to the manufacturer's instructions. The intracellular NO level was detected using the NO-sensitive fluorescence probe DAF-FM DA (Sigma, St. Louis, Mo., USA) (24). Cells were labeled with DAF-FM DA (10 μM) at 37° C. for 30 min and were gently washed three times with PBS. Fluorescence was detected using a LSM710 Laser Scanning Confocal Microscope (Scale bars, 100 μm) (Carl Zeiss, Jena, Germany).
Macrophages M1 (F4/80+/CD11c+/CD206−) and M2 (F4/80+/CD11c−/CD206+) polarization were analyzed using flow cytometry.

[2] = tested on: LPS-induced RAW264.7 cells; experiment: mRNA expression of TNF-α, IL-1β and MCP-1 by quantitative real-time PCR; conditions: ICI-118551-treated cells compared to the control group
Description: as §1
To examine the mRNA expression of TNF-α, IL-1β and MCP-1, quantitative real-time PCR was performed. Consistent with the cytokine expression study, the mRNA expression of TNF-α was increased by 2.26-fold in the LPS-induced group compared to the control group (FIG. 8D). The mRNA expression of IL-1β and MCP-1 increased by 12.74-fold (FIG. 8E) and 3.1-fold, respectively, in the LPS-induced group compared to the control group (FIG. 8F).

[3] = tested on: LPS-induced RAW264.7 cells; experiment: NO production (DAF-FM DA probe, Griess assay); conditions: treatment with ICI-118551 in (R)-salbutamol/LPS cells
Description: as §1
(§2) In addition, the concentration of NO in the culture supernatant was measured by assaying the concentrations of nitrite (a stable NO breakdown product) using the Griess assay. […] To investigate (R)-salbutamol role on the level of iNOS, the mRNA and protein levels of iNOS were determined.

iNOS = iNOS mRNA and protein levels
Description: as §2

[4] = tested on: LPS-induced macrophages RAW264.7 cells; experiment: Ratio of GSH/GSSG
Text: The ratio of GSH to GSSG is a marker of oxidative stress.

[5] = tested on: LPS-induced RAW264.7 cells; experiment: Seahorse analysis of OCR and ECAR
Description: as §1
Macrophage activation elicited different metabolic profiles. LPS-induced macrophages adopted glycolytic metabolic profiles. This invention disclosed a β2 adrenergic receptor mediated Warburg metabolism (aerobic glycolysis) of in LPS treated macrophages. The OCR and ECAR were measured using an extracellular flux analyzer. […] ECAR is a measurement extracellular acidification rate, an indication of cellular glycolytic rate.

Cc1ccc(OCC(O)C(C)NC(C)C)c2c1CCC2 (centres unmarked) [ICI-118551, reference compound]
percentage of M1 macrophages [1]: 55.8%
mRNA expression of IL-1β, increase [2]: 12.41 fold
mRNA expression of MCP-1, increase [2]: 3.36 fold
mRNA expression of TNF-α, increase [2]: 2.28 fold
NO levels [3]: increased NO levels
effects of (R)-salbutamol on iNOS when adding ICI-118551 (iNOS): blocked
effect of (R)-salbutamol on GSH/GSSG with ICI-118551 [4]: blocked
metabolism shift by (R)-salbutamol with ICI-118551 treatment [5]: blocked

From patent US20220362174A1, “Use of R-enantiomer Beta2-agonists for prevent and treatment of pulmonary inflammation and inflammatory remodeling for reduced adverse effects” (priority 2019, published 2022)
